{"source": "ChEMBL document CHEMBL2150933", "about": "(J Med Chem, 2012)", "key": {"MDA-MB-468": {"tested_on": "MDA-MB-468", "assay": "Cytotoxicity against human MDA-MB-468 cells after 48 hrs by SRB assay", "assay_type": "functional", "details": "MDA-MB-468, 48 h"}, "[1]": {"assay": "Toxicity in iv dosed CD1 mouse administered as single dose", "assay_type": "organism-based", "details": "in vivo"}, "COLO 205 [2]": {"tested_on": "COLO 205", "assay": "Antitumor activity against human COLO205 cells xenografted in athymic nu/nu Harlan mouse assessed as tumor growth inhibition at 10 mg/kg, iv administered Q2D for 10 days relative to control", "assay_type": "functional, organism-based", "set-up": "dose 10 mg/kg"}, "SK-MEL-2 [3]": {"tested_on": "SK-MEL-2", "assay": "Antitumor activity against human SK-MEL-2 cells xenografted in athymic nu/nu Harlan mouse assessed as tumor growth inhibition at 10 mg/kg, iv administered Q2D for 10 days relative to control", "assay_type": "functional, organism-based", "set-up": "dose 10 mg/kg"}, "SK-MEL-2 [4]": {"tested_on": "SK-MEL-2", "assay": "Antitumor activity against human SK-MEL-2 cells xenografted in athymic nu/nu Harlan mouse assessed as tumor growth inhibition at 20 mg/kg, iv administered Q3D for 10 days relative to control", "assay_type": "functional, organism-based", "set-up": "dose 20 mg/kg"}, "Mus musculus [5]": {"tested_on": "Mus musculus", "assay": "Toxicity in athymic nu/nu Harlan mouse xenografted with human COLO205 cells assessed as adverse reactions at 20 mg/kg, iv administered Q3D for 10 days relative to control", "assay_type": "organism-based, COLO 205", "set-up": "dose 20 mg/kg, route intravenous", "details": "in vivo, 240 h"}, "Mus musculus [6]": {"tested_on": "Mus musculus", "assay": "Toxicity in athymic nu/nu Harlan mouse xenografted with human COLO205 cells assessed as mortality at 20 mg/kg, iv administered Q3D for 10 days relative to control", "assay_type": "organism-based, COLO 205", "set-up": "dose 20 mg/kg, route intravenous", "details": "in vivo, 240 h"}, "Mus musculus [7]": {"tested_on": "Mus musculus", "assay": "Toxicity in athymic nu/nu Harlan mouse xenografted with human COLO205 cells assessed as change in body weight at 20 mg/kg, iv administered Q3D for 10 days relative to control", "assay_type": "organism-based, COLO 205", "set-up": "dose 20 mg/kg, route intravenous", "details": "in vivo, 240 h"}, "Mus musculus [8]": {"tested_on": "Mus musculus", "assay": "Toxicity in athymic nu/nu Harlan mouse xenografted with human SK-MEL-2 cells assessed as adverse reactions at 20 mg/kg, iv administered Q3D for 10 days relative to control", "assay_type": "organism-based", "set-up": "dose 20 mg/kg, route intravenous", "details": "in vivo, 240 h"}, "Mus musculus [9]": {"tested_on": "Mus musculus", "assay": "Toxicity in athymic nu/nu Harlan mouse xenografted with human SK-MEL-2 cells assessed as change in body weight at 20 mg/kg, iv administered Q3D for 10 days relative to control", "assay_type": "organism-based", "set-up": "dose 20 mg/kg, route intravenous", "details": "in vivo, 240 h"}, "EKVX": {"tested_on": "EKVX", "assay": "Cytotoxicity against human EKVX cells after 48 hrs by SRB assay", "assay_type": "functional"}, "HOP-62": {"tested_on": "HOP-62", "assay": "Cytotoxicity against human HOP62 cells after 48 hrs by SRB assay", "assay_type": "functional", "details": "HOP-62, 48 h"}, "HL-60": {"tested_on": "HL-60", "assay": "Cytotoxicity against human HL60 cells after 48 hrs by SRB assay", "assay_type": "functional", "details": "HL-60, 48 h"}, "BXPC-3": {"tested_on": "BXPC-3", "assay": "Cytotoxicity against human BxPC3 cells after 72 hrs by MTT assay", "assay_type": "functional", "details": "BXPC-3, 72 h"}, "COLO 205 [10]": {"tested_on": "COLO 205", "assay": "Cytotoxicity against human COLO205 cells after 72 hrs by MTT assay", "assay_type": "functional", "details": "COLO 205, 72 h"}, "A549": {"tested_on": "A549", "assay": "Cytotoxicity against human A549 cells after 72 hrs by MTT assay", "assay_type": "functional", "details": "A549, 72 h"}, "HOP-92": {"tested_on": "HOP-92", "assay": "Cytotoxicity against human HOP92 cells after 48 hrs by SRB assay", "assay_type": "functional", "details": "HOP-92, 48 h"}, "NCI-H522": {"tested_on": "NCI-H522", "assay": "Cytotoxicity against human NCI-H522 cells after 48 hrs by SRB assay", "assay_type": "functional", "details": "NCI-H522, 48 h"}, "HCC 2998": {"tested_on": "HCC 2998", "assay": "Cytotoxicity against human HCC2998 cells after 48 hrs by SRB assay", "assay_type": "functional", "details": "HCC 2998, 48 h"}, "HCT-116": {"tested_on": "HCT-116", "assay": "Cytotoxicity against human HCT116 cells after 48 hrs by SRB assay", "assay_type": "functional", "details": "HCT-116, 48 h"}, "SF-295": {"tested_on": "SF-295", "assay": "Cytotoxicity against human SF295 cells after 48 hrs by SRB assay", "assay_type": "functional", "details": "SF-295, 48 h, read-out: pGI50 (converted)"}, "SF-539": {"tested_on": "SF-539", "assay": "Cytotoxicity against human SF539 cells after 48 hrs by SRB assay", "assay_type": "functional", "details": "SF-539, 48 h"}, "SNB-19": {"tested_on": "SNB-19", "assay": "Cytotoxicity against human SNB19 cells after 48 hrs by SRB assay", "assay_type": "functional", "details": "SNB-19, 48 h"}, "M14": {"tested_on": "M14", "assay": "Cytotoxicity against human M14 cells after 48 hrs by SRB assay", "assay_type": "functional", "details": "M14, 48 h"}, "SK-MEL-2 [11]": {"tested_on": "SK-MEL-2", "assay": "Cytotoxicity against human SK-MEL-2 cells after 48 hrs by SRB assay", "assay_type": "functional", "details": "SK-MEL-2, 48 h"}, "SK-MEL-28": {"tested_on": "SK-MEL-28", "assay": "Cytotoxicity against human SK-MEL-28 cells after 48 hrs by SRB assay", "assay_type": "functional", "details": "SK-MEL-28, 48 h"}, "SK-MEL-5": {"tested_on": "SK-MEL-5", "assay": "Cytotoxicity against human SK-MEL-5 cells after 48 hrs by SRB assay", "assay_type": "functional", "details": "SK-MEL-5, 48 h"}, "IGROV-1": {"tested_on": "IGROV-1", "assay": "Cytotoxicity against human IGROV1 cells after 48 hrs by SRB assay", "assay_type": "functional", "details": "IGROV-1, 48 h"}, "OVCAR-3": {"tested_on": "OVCAR-3", "assay": "Cytotoxicity against human OVCAR3 cells after 48 hrs by SRB assay", "assay_type": "functional", "details": "OVCAR-3, 48 h"}, "[12]": {"assay": "Cytotoxicity against human NCI-ADR-RES cells after 48 hrs by SRB assay", "assay_type": "functional"}, "A498": {"tested_on": "A498", "assay": "Cytotoxicity against human A498 cells after 48 hrs by SRB assay", "assay_type": "functional", "details": "A498, 48 h"}, "RXF 393": {"tested_on": "RXF 393", "assay": "Cytotoxicity against human RXF393 cells after 48 hrs by SRB assay", "assay_type": "functional", "details": "RXF 393, 48 h"}, "UO-31": {"tested_on": "UO-31", "assay": "Cytotoxicity against human UO31 cells after 48 hrs by SRB assay", "assay_type": "functional", "details": "UO-31, 48 h"}, "DU-145": {"tested_on": "DU-145", "assay": "Cytotoxicity against human DU145 cells after 48 hrs by SRB assay", "assay_type": "functional", "details": "DU-145, 48 h"}, "MCF7": {"tested_on": "MCF7", "assay": "Cytotoxicity against human MCF7 cells after 48 hrs by SRB assay", "assay_type": "functional", "details": "MCF7, 48 h"}, "Hs-578T": {"tested_on": "Hs-578T", "assay": "Cytotoxicity against human Hs578T cells after 48 hrs by SRB assay", "assay_type": "functional"}, "BT-549": {"tested_on": "BT-549", "assay": "Cytotoxicity against human BT549 cells after 48 hrs by SRB assay", "assay_type": "functional", "details": "BT-549, 48 h"}}, "note": "Calls of active or inactive are those of the source. The rule behind the calls is not given here."}
{"molecule": "CO[C@@H]([C@@H]1Cc2cc3cc(O[C@H]4C[C@@H](O[C@H]5C[C@@H](O)[C@H](O)[C@@H](C)O5)[C@H](O)[C@@H](C)O4)c(C)c(O)c3c(O)c2C(=O)[C@H]1O[C@H]1C[C@@H](O[C@H]2C[C@@H](O[C@H]3C[C@H](O)[C@H](O)[C@@H](C)O3)[C@H](O)[C@@H](C)O2)[C@H](O)[C@@H](C)O1)[C@@H](O)C(C)=O", "values": [{"measurement": "GI50", "setting": "MDA-MB-468", "value": 33.9, "unit": "nM"}, {"measurement": "MTD", "setting": "[1]", "value": 64, "unit": "mg/kg"}, {"measurement": "TGI", "setting": "COLO 205 [2]", "value": "Active"}, {"measurement": "TGI", "setting": "SK-MEL-2 [3]", "value": "Active"}, {"measurement": "TGI", "setting": "SK-MEL-2 [4]", "value": "Active"}, {"measurement": "Activity", "setting": "Mus musculus [5]", "value": "Non-toxic"}, {"measurement": "Activity", "setting": "Mus musculus [6]", "value": "Non-toxic"}, {"measurement": "Activity", "setting": "Mus musculus [7]", "value": "Non-toxic"}, {"measurement": "Activity", "setting": "Mus musculus [8]", "value": "Non-toxic"}, {"measurement": "Activity", "setting": "Mus musculus [9]", "value": "Non-toxic"}, {"measurement": "GI50", "setting": "EKVX", "value": 85.1, "unit": "nM"}, {"measurement": "GI50", "setting": "HOP-62", "value": 24.6, "unit": "nM"}, {"measurement": "GI50", "setting": "HL-60", "value": 24, "unit": "nM"}, {"measurement": "GI50", "setting": "BXPC-3", "value": 300, "unit": "nM"}, {"measurement": "GI50", "setting": "COLO 205 [10]", "value": 300, "unit": "nM"}, {"measurement": "GI50", "setting": "A549", "value": 300, "unit": "nM"}, {"measurement": "GI50", "setting": "HOP-92", "value": 26.9, "unit": "nM"}, {"measurement": "GI50", "setting": "NCI-H522", "value": 17.8, "unit": "nM"}, {"measurement": "GI50", "setting": "HCC 2998", "value": 16.2, "unit": "nM"}, {"measurement": "GI50", "setting": "HCT-116", "value": 16.6, "unit": "nM"}, {"measurement": "GI50", "setting": "SF-295", "value": 19.9, "unit": "nM"}, {"measurement": "GI50", "setting": "SF-539", "value": 25.1, "unit": "nM"}, {"measurement": "GI50", "setting": "SNB-19", "value": 28.2, "unit": "nM"}, {"measurement": "GI50", "setting": "M14", "value": 45.7, "unit": "nM"}, {"measurement": "GI50", "setting": "SK-MEL-2 [11]", "value": 27.5, "unit": "nM"}, {"measurement": "GI50", "setting": "SK-MEL-28", "value": 18.6, "unit": "nM"}, {"measurement": "GI50", "setting": "SK-MEL-5; read-out: GI50", "value": 16, "unit": "nM"}, {"measurement": "GI50", "setting": "SK-MEL-5; read-out: pGI50 (converted)", "value": 17, "unit": "nM"}, {"measurement": "GI50", "setting": "IGROV-1; read-out: GI50", "value": 10, "unit": "nM"}, {"measurement": "GI50", "setting": "IGROV-1; read-out: pGI50 (converted)", "value": 10.5, "unit": "nM"}, {"measurement": "GI50", "setting": "OVCAR-3", "value": 19.5, "unit": "nM"}, {"measurement": "GI50", "setting": "[12]", "value": 50100, "unit": "nM"}, {"measurement": "GI50", "setting": "A498", "value": 14.4, "unit": "nM"}, {"measurement": "GI50", "setting": "RXF 393", "value": 29.5, "unit": "nM"}, {"measurement": "GI50", "setting": "UO-31", "value": 69.2, "unit": "nM"}, {"measurement": "GI50", "setting": "DU-145", "value": 20.4, "unit": "nM"}, {"measurement": "GI50", "setting": "MCF7", "value": 13.8, "unit": "nM"}, {"measurement": "GI50", "setting": "Hs-578T", "value": 16.2, "unit": "nM"}, {"measurement": "GI50", "setting": "BT-549", "value": 18.2, "unit": "nM"}]}
